Laboratory results: patent US12384797B2, “Thioeno[3,2-b] pyridin-7-amine compounds for treating familial dysautonomia” (PTC THERAPEUTICS, INC., priority 2019, dated 2025)

System: Elongator complex protein 1 (ELP1, also referred to as IKBKAP)
Experiment: IKBKAP-HTRF assay (IKBKAP protein in lysates of FD patient-derived fibroblasts)
Assay type: cell-based, human
Conditions: 48 hours incubation, 7-point concentration curve
Procedure: The assay is used for the quantitative determination of Elongator complex protein 1 (ELP1, also referred to as IKBKAP) concentration in cell lysates using the HTRF® (Homogeneous Time-Resolved Fluorescence) technology. IKBKAP is detected in a sandwich HTRF assay by use of an anti-IKAP antibody labeled with a donor and an anti-IKAP antibody labeled with an acceptor.
Cells were thawed and incubated in DMEM-10% FBS for 72 hours. Cells were trypsinized, counted, and re-suspended to a concentration of 50,000 cells/mL in DMEM-10% FBS. A 199 μL aliquot of the cell suspensions were plated at 10,000 cells per well in a 96 well microtiter plate and incubated for 3 to 5 hours. […] Test compounds were serially diluted 3.16-fold in 100% DMSO to generate a 7-point concentration curve. A 1 μL aliquot of 200× compound solution was transferred to cell-containing wells, and cells were incubated for 48 hours in a cell culture incubator (37° C., 5% CO2, 100% relative humidity). Triplicate samples were set up for each compound concentration. After 48 hours, the supernatant was removed from the cells and 50 μL of the 1×LB4 lysis buffer, containing protease inhibitors, was added to the cells and incubated with shaking at room temperature for 1 hour. A 36 μL aliquot of this lysate was subsequently transferred to the 384-well plate containing 4 μL of the antibody solution (1:50 dilution of anti IKAP d2 and anti-IKAP K(9+8) in detection buffer). The 384-well plate was then centrifuged for 1 minute to bring the solutions to the bottom of the plate and incubated overnight at 4° C. Fluorescence for each well of the plate at 665 nm and 620 nm was measured was on the EnVision plate reader (Perkin Elmer). The ΔF for each sample is calculated by:
[formula] wherein Signal is the normalized fluorescence for each sample well and Blank is the average normalized average fluorescence for the Blank control wells.
The maximum fold increase (MFI) in IKBKAP protein abundance for compounds of Formula (I) or a form thereof relative to the vehicle control are provided in Table 1. MFI was calculated by dividing the ΔF value for each sample well by the sample ΔF for the vehicle control wells.
The EC2x for IKBKAP protein expression obtained from the 7-point concentration curve generated for each test compound according to the protocol in Biological Example 1 are also provided in Table 1. The term “EC2x for IKBKAP protein expression” is defined as the concentration of test compound that is effective in producing two times the amount of IKBKAP protein in a FD patient cell compared to the amount produced from the DMSO vehicle control.

Compound	EC2x for IKBKAP protein expression (concentration producing two times the amount of IKBKAP protein vs DMSO vehicle control)	MFI (maximum fold increase in IKBKAP protein abundance relative to the vehicle control)
2-[(2R)-2-amino-3-fluoropropyl]-5-chloro-3-cyclopropyl-N-[(thiophen-2-yl)methyl]thieno[3,2-b]pyridin-7-amine [Compound 77]	*** (between >0.02 μM and ≤0.5 μM is indicated by three stars (***))	**** (between >3.9 and ≤4.9 is indicated by four stars (****))
N[C@@H](CF)Cc1sc2c(NCc3nccs3)cc(Cl)nc2c1C1CC1 [Compound 87, 2-[(2R)-2-amino-3-fluoropropyl]-5-chloro-3-cyclopropyl-N-[(1,3-thiazol-2-yl)methyl]thieno[3,2-b]pyridin-7-amine]	*** (between >0.02 μM and ≤0.5 μM is indicated by three stars (***))	*** (between >2.9 and ≤3.9 is indicated by three stars (***))
CC[C@H](N)Cc1sc2c(NCc3cccs3)cc(Cl)nc2c1Cl [Compound 83, 2-[(2S)-2-aminobutyl]-3,5-dichloro-N-[(thiophen-2-yl)methyl]thieno[3,2-b]pyridin-7-amine]	***** (≤0.005 μM is indicated by five stars (*****))	***** (>4.9 is indicated by five stars (*****))
Cc1c(C[C@@H](N)C(=O)Nc2cccc(Cl)c2)sc2c(NCc3ccco3)cc(Cl)nc12 [Compound 143, 3-(5-chloro-7-{[(furan-2-yl)methyl]amino}-3-methylthieno[3,2-b]pyridin-2-yl)-N-(3-chlorophenyl)-D-alaninamide]	*** (between >0.02 μM and ≤0.5 μM is indicated by three stars (***))	***** (>4.9 is indicated by five stars (*****))
Cc1c(C[C@H](C)N)sc2c(NCc3ccco3)cc(C#N)nc12 [Compound 20, 2-[(2S)-2-aminopropyl]-7-{[(furan-2-yl)methyl]amino}-3-methylthieno[3,2-b]pyridine-5-carbonitrile]	***** (≤0.005 μM is indicated by five stars (*****))	***** (>4.9 is indicated by five stars (*****))
CN[C@H](c1sc2c(NCc3ccco3)cc(Cl)nc2c1C)C(C)C [Compound 32, 5-chloro-N-[(furan-2-yl)methyl]-3-methyl-2-[(1S)-2-methyl-1-(methylamino)propyl]thieno[3,2-b]pyridin-7-amine]	* (An EC2x>1 μM is indicated by one star (*))	* (An MFI≤1.9 is indicated by one star (*))
C[C@H](N)Cc1sc2c(NCc3ccco3)cc(C#N)nc2c1C#N [Compound 50, 2-[(2S)-2-aminopropyl]-7-{[(furan-2-yl)methyl]amino}thieno[3,2-b]pyridine-3,5-dicarbonitrile]	**** (between >0.005 μM and ≤0.02 μM is indicated by four stars (****))	**** (between >3.9 and ≤4.9 is indicated by four stars (****))
Cc1c(C[C@@H](N)C(=O)Nc2ccnn2C)sc2c(NCc3ccco3)cc(Cl)nc12 [Compound 145, 3-(5-chloro-7-{[(furan-2-yl)methyl]amino}-3-methylthieno[3,2-b]pyridin-2-yl)-N-(1-methyl-1H-pyrazol-5-yl)-D-alaninamide]	*** (between >0.02 μM and ≤0.5 μM is indicated by three stars (***))	***** (>4.9 is indicated by five stars (*****))
CC(O)c1cc2nc(Cl)cc(NCc3ccco3)c2s1 (stereo not drawn) [Compound 4, 1-(5-chloro-7-{[(furan-2-yl)methyl]amino}thieno[3,2-b]pyridin-2-yl)ethan-1-ol]	* (An EC2x>1 μM is indicated by one star (*))	** (between >1.9 and ≤2.9 is indicated by two stars (**))
Cc1c(NC[C@H](C)N)sc2c(NCc3cccs3)cc(Cl)nc12 [Compound 163, N^2-[(2S)-2-aminopropyl]-5-chloro-3-methyl-N^7-[(thiophen-2-yl)methyl]thieno[3,2-b]pyridine-2,7-diamine]	*** (between >0.02 μM and ≤0.5 μM is indicated by three stars (***))	**** (between >3.9 and ≤4.9 is indicated by four stars (****))
C[C@H](N)C(=O)c1sc2c(NCc3nccs3)cc(Cl)nc2c1Br [Compound 160, (2S)-2-amino-1-(3-bromo-5-chloro-7-{[(1,3-thiazol-2-yl)methyl]amino}thieno[3,2-b]pyridin-2-yl)propan-1-one]	*** (between >0.02 μM and ≤0.5 μM is indicated by three stars (***))	**** (between >3.9 and ≤4.9 is indicated by four stars (****))
C[C@H](N)Cc1sc2c(NCc3ccco3)cc(Cl)nc2c1Cl [Compound 36, 2-[(2S)-2-aminopropyl]-3,5-dichloro-N-[(furan-2-yl)methyl]thieno[3,2-b]pyridin-7-amine]	***** (≤0.005 μM is indicated by five stars (*****))	***** (>4.9 is indicated by five stars (*****))
C[C@H](N)C(=O)c1sc2c(NCc3cccs3)cc(Cl)nc2c1Br [Compound 156, (2S)-2-amino-1-(3-bromo-5-chloro-7-{[(thiophen-2-yl)methyl]amino}thieno[3,2-b]pyridin-2-yl)propan-1-one]	*** (between >0.02 μM and ≤0.5 μM is indicated by three stars (***))	*** (between >2.9 and ≤3.9 is indicated by three stars (***))
Cc1c([C@H](C)N)sc2c(NCc3ccco3)cc(Cl)nc12 [Compound 21, 2-[(1S)-1-aminoethyl]-5-chloro-N-[(furan-2-yl)methyl]-3-methylthieno[3,2-b]pyridin-7-amine]	**** (between >0.005 μM and ≤0.02 μM is indicated by four stars (****))	**** (between >3.9 and ≤4.9 is indicated by four stars (****))
C[C@H](N)C(F)c1sc2c(NCc3nccs3)cc(Cl)nc2c1Br (stereo partly drawn) [Compound 161, 2-[(2S)-2-amino-1-fluoropropyl]-3-bromo-5-chloro-N-[(1,3-thiazol-2-yl)methyl]thieno[3,2-b]pyridin-7-amine]	***** (≤0.005 μM is indicated by five stars (*****))	*** (between >2.9 and ≤3.9 is indicated by three stars (***))
N[C@@H](CCO)Cc1sc2c(NCc3nccs3)cc(Cl)nc2c1Br [Compound 89, (3S)-3-amino-4-(3-bromo-5-chloro-7-{[(1,3-thiazol-2-yl)methyl]amino}thieno[3,2-b]pyridin-2-yl)butan-1-ol]	***** (≤0.005 μM is indicated by five stars (*****))	***** (>4.9 is indicated by five stars (*****))
Cc1cc(NCc2nccs2)c2scc(Cl)c2n1 [Compound 10, 3-chloro-5-methyl-N-[(1,3-thiazol-2-yl)methyl]thieno[3,2-b]pyridin-7-amine]	* (An EC2x>1 μM is indicated by one star (*))	* (An MFI≤1.9 is indicated by one star (*))
N[C@H](Cc1sc2c(NCc3ccco3)cc(Cl)nc2c1Cl)C(=O)Nc1ccccc1F [Compound 124, 3-(3,5-dichloro-7-{[(furan-2-yl)methyl]amino}thieno[3,2-b]pyridin-2-yl)-N-(2-fluorophenyl)-D-alaninamide]	**** (between >0.005 μM and ≤0.02 μM is indicated by four stars (****))	***** (>4.9 is indicated by five stars (*****))
